The record followed here is US20240368174A1, “Antiviral Heterocyclic Compounds” (Enanta Pharmaceuticals, Inc., priority 2023, published 2024).

Structures are written as SMILES. Where only a bound is given, the exact number is not on record here.

What is called EC50 is the concentration at which the effect is half-maximal. A lower EC50 goes with an effect from little substance.

Assay [1] relates to genotype A, “Long” strain RSV. The assay can be described thus: RSV-A assay (CPE, ATPlite readout in Hep-2 cells). The conditions noted are these: human respiratory syncytial virus, activity class. The class given is cell-based, Human respiratory syncytial virus. In a few lines: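 ATPlite luminescence (cellular ATP) served as the measure of cell health after 5 days of infection. Hep-2 cells at 8,000 per well received duplicate 2-fold compound dilutions plus virus at MOI 0.1, and EC50 was calculated from CPE protection.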

The subject of assay [2] is HMPV clinical isolate A2 strain TN 94-49. The assay can be described thus: HMPV antiviral assay, Method 2 (LLC-MK2 cells with CP-100-356, ATP-Lite). The class given is cell-based. The conditions noted are these: human metapneumovirus. In a few lines: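 LLC-MK2 rhesus kidney cells (5,000/well) infected in suspension with HMPV A2 TN 94-49 at MOI 0.16, in serum-free medium with final 2 μg/mL TPCK-trypsin and 2 μM CP-100-356. Compounds tested in duplicate from 200 nM, 2.5-fold, 10 points; 7 days at 37 °C. Cell health by ATP-Lite luminescence; EC50 by four-parameter fit.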

The mark [3] stands for this setting: 168 h, hMPV A2 TN/94-49, LLC-MK2 cells with 4 μM CP-100-356, 7 days, ATP-Lite.
Where [4] appears, read: hMPV A2 TN/94-49, LLC-MK2 cells with CP-100-356, Method 2.

In the case of `COc1cc(C(=O)NC[C@](O)(c2cc3c(c(-c4ccnc(C(F)(F)F)c4F)n2)OC[C@]3(C)C(N)=O)C2CC2)cc2cn(C3(F)CC3)nc12` [Example 800], the EC50 in assay [1] and in assay [2] (setting [3]) was below 200 nM throughout.
For the compound `COc1cc(C(=O)NC[C@](O)(c2cc3c(c(-c4ccnc(C(F)F)c4Cl)n2)OC[C@]3(C)C(N)=O)C2CC2)cc2oc(C3CC3)nc12` [Example 787], the EC50 in assay [1] and in assay [2] (setting [3]) was below 200 nM throughout.
As to `COc1cc(C(=O)NC[C@](O)(c2cc3c(c(-c4cc(Cl)c(F)cc4F)n2)OC[C@]3(C)C(N)=O)C2(CF)CC2)cc2cn(C3CC3)nc12` [Example 212], the EC50 is below 200 nM in assay [1] and above 200 nM in assay [2] (setting [4]).
In the same order, the values of `C[C@]1(C(N)=O)COc2c1cc([C@@](O)(CNC(=O)c1cc(Cl)c3[nH]ncc3c1)C1CC1)nc2-c1cc(F)c(F)cc1F` [Example 119] are below 200 nM and above 200 nM.
Take `COc1cc(C(=O)NC[C@](O)(c2cc3c(c(-c4ccnc(F)c4Cl)n2)OC[C@]3(C)C(N)=O)C(F)(F)F)cc2cn(C(F)F)nc12` [Example 380]: the EC50 in assay [1] and in assay [2] (setting [4]) was below 200 nM throughout.
In the case of `COc1cc(C(=O)NC[C@](O)(c2cc3c(c(-c4ccsc4Cl)n2)OC[C@]3(C)C(N)=O)C2CC2)cc2cn(C3CC3)nc12` [Example 415], the EC50 in assay [1] and in assay [2] (setting [4]) was below 200 nM each time.
Regarding `COc1cc(C(=O)NC[C@](O)(c2cc3c(c(-c4ccnc(C(F)F)c4Cl)n2)OC[C@]3(C)C(N)=O)C(F)(F)F)cc2oc(C3CC3)nc12` [Example 550], the EC50 in assay [1] and in assay [2] (setting [4]) was below 200 nM in each case.
`COc1cc(C(=O)NC[C@](O)(c2cc3c(c(-c4ccn5nccc5c4Cl)n2)OC[C@]3(C)C(N)=O)C2CC2)cc2cn(C3CC3)nc12` [Example 824]: the EC50 in assay [1] and in assay [2] (setting [3]) was below 200 nM in each case.
In the case of `COc1cc(C(=O)NC[C@](O)(c2cc3c(c(-c4ccnc(C(F)(F)F)c4Cl)n2)OC[C@]3(C)C(N)=O)C(F)(F)F)cc2cn(C3(F)CC3)nc12` [Example 534], the EC50 in assay [1] and in assay [2] (setting [4]) was below 200 nM in each case.
As for `COc1cc(C(=O)NC[C@](O)(c2cc3c(c(-c4cscc4C)n2)OC[C@]3(C)C(N)=O)C2CC2)cc2cn(C3CC3)nc12` [Example 414], the EC50 in assay [1] and in assay [2] (setting [4]) was below 200 nM throughout.
On to `COc1cc(C(=O)NC[C@](O)(c2cc3c(c(-c4cc(F)c(F)cc4F)n2)OC[C@]3(C)C(N)=O)C2CC(F)(F)C2)cc2cn(C3(F)CC3)nc12` [Example 123], for which the EC50 in assay [1] and in assay [2] (setting [4]) was below 200 nM in each case.
With `COc1cc(C(=O)NC[C@](O)(c2cc3c(c(-c4cc(C(F)(F)F)ncc4F)n2)OC[C@]3(C)C(N)=O)C2CC2)cc2cn(C3CC3)nc12` [Example 347], the EC50 in assay [1] and in assay [2] (setting [4]) was below 200 nM throughout.
Consider `COc1cc(C(=O)NC[C@@](O)(c2ccccc2)c2cc3c(c(-c4ccnc(F)c4Cl)n2)OC[C@]3(C)C(N)=O)cc2cn(C3(F)CC3)nc12` [Example 344], for which the EC50 in assay [1] and in assay [2] (setting [4]) was below 200 nM in each case.
Regarding `COc1cc(C(=O)NC[C@](O)(c2cc3c(c(-c4cc(F)c(F)cc4F)n2)OC[C@]3(C)C(N)=O)C2CC2)cn2cc(C3CC3)nc12` [Example 116], the EC50 in assay [1] and in assay [2] (setting [4]) was below 200 nM in each case.
On to `C[C@]1(C(N)=O)COc2c1cc([C@@](O)(CNC(=O)c1ccc3nc(C4CC4)oc3c1)C1CC1)nc2-c1cc(C(F)(F)F)c(F)cc1F` [Example 306], for which the EC50 in assay [1] and in assay [2] (setting [4]) was below 200 nM throughout.
In the case of `COc1cc(C(=O)NC[C@](O)(c2cc3c(c(-c4cncc(OC(F)F)c4Cl)n2)OC[C@]3(C)C(N)=O)C2CC2)cc2cn(C(F)F)nc12` [Example 742], the EC50 in assay [1] and in assay [2] (setting [3]) was below 200 nM each time.
For `COc1cc(C(=O)NC[C@](O)(c2cc3c(c(-c4cc(C(F)(F)F)ncc4F)n2)OC[C@]3(C)C(N)=O)C2CC2)cc2cn(C3(F)CC3)nc12` [Example 348], the EC50 in assay [1] and in assay [2] (setting [4]) was below 200 nM in each case.
`C[C@]1(C(N)=O)COc2c1cc([C@@](O)(CNC(=O)c1cc(Cl)c3nn(C(F)F)cc3c1)c1ccccc1)nc2-c1cc(Cl)c(F)cc1F` [Example 102]: the EC50 in assay [1] was below 200 nM; in assay [2] (setting [4]), above 200 nM.
As for `COc1cc(C(=O)NC[C@](O)(c2cc3c(c(-c4ccc(F)c(Cl)c4Cl)n2)OC[C@]3(C)C(N)=O)C2CC2)cc2cn(C(F)F)nc12` [Example 323], the EC50 in assay [1] and in assay [2] (setting [4]) was below 200 nM throughout.
With `COc1cc(C(=O)NC[C@](O)(c2cc3c(c(-c4ccnc(C(F)(F)F)c4Cl)n2)OC[C@]3(C)C(N)=O)C2CC2)cc2cc(C3CC3)nn12` [Example 579], the EC50 in assay [1] and in assay [2] (setting [4]) was below 200 nM in each case.
`COc1cc(C(=O)NC[C@@](O)(c2cccc(F)c2)c2cc3c(c(-c4ccnc(C)c4Cl)n2)OC[C@]3(C)C(N)=O)cc2cn(C3CC3)nc12` [Example 378]: the EC50 in assay [1] and in assay [2] (setting [4]) was below 200 nM each time.
Regarding `COc1nccc(-c2nc([C@@](O)(CNC(=O)c3cc(OC)c4nn(C5(F)CC5)cc4c3)C3CC3)cc3c2OC[C@]3(C)C(N)=O)c1Cl` [Example 789], the EC50 in assay [1] and in assay [2] (setting [3]) was below 200 nM in each case.
In the case of `COC1=CC(C(=O)NC[C@](O)(c2cc3c(c(-c4ccnc(C)c4Cl)n2)OC[C@]3(C)C(N)=O)C2(F)CC2)=CC2OC(C3CC3)=NC12` (some centres unmarked) [Example 526], the EC50 in assay [1] and in assay [2] (setting [4]) was below 200 nM each time.
In the case of `COc1cc(C(=O)NC[C@](O)(c2cc3c(c(-n4ccc5ccccc54)n2)OC[C@]3(C)C(N)=O)C2CC2)cc2cn(C3CC3)nc12` [Example 443], the EC50 in assay [1] and in assay [2] (setting [4]) was below 200 nM in each case.
As for `COc1cc(C(=O)NC[C@](O)(c2cc3c(c(-c4ccnc(C(F)(F)F)c4Cl)n2)OC[C@]3(C)C(N)=O)C2CC2)cc2cn(C3(F)CC3)nc12` [Example 760], the EC50 in assay [1] and in assay [2] (setting [3]) was below 200 nM in each case.
As to `COc1cc(C(=O)NC[C@@](O)(c2ccccc2)c2cc3c(c(-c4ccnc(F)c4Cl)n2)OC[C@]3(C)C(N)=O)cc2cn(C3CC3)nc12` [Example 343], the EC50 in assay [1] and in assay [2] (setting [4]) was below 200 nM throughout.
As for `COc1cc(C(=O)NC[C@@](O)(c2cccc(F)c2)c2cc3c(c(-c4ccnc(F)c4Cl)n2)OC[C@]3(C)C(N)=O)cc2cn(C3CC3)nc12` [Example 407], the EC50 in assay [1] and in assay [2] (setting [4]) was below 200 nM each time.
For `COc1cc(C(=O)NC[C@@](O)(c2ccccc2)c2cc3c(c(-n4ncc5c(F)cccc54)n2)OC[C@]3(C)C(N)=O)cc2oc(C3CC3)nc12` [Example 631], the EC50 in assay [1] and in assay [2] (setting [3]) was below 200 nM each time.
With `COc1cc(C(=O)NC[C@](O)(c2cc3c(c(-c4cc(C(F)(F)F)c(F)cc4F)n2)OC[C@]3(C)C(N)=O)C2CC2)cc2cn(C(F)F)nc12` [Example 310], the EC50 in assay [1] and in assay [2] (setting [4]) was below 200 nM each time.
Regarding `COc1cc(C(=O)NC[C@](O)(c2cc3c(c(-c4csc(Cl)c4)n2)OC[C@]3(C)C(N)=O)C2CC2)cc2cn(C3CC3)nc12` [Example 416], the EC50 in assay [1] and in assay [2] (setting [4]) was below 200 nM throughout.
Regarding `C[C@]1(C(N)=O)COc2c1cc([C@@](O)(CNC(=O)c1cc(OC3CC3)c3ncc(Cl)cc3c1)C1CC1)nc2-c1ccc(F)c(Cl)c1Cl` [Example 321], the EC50 in assay [1] and in assay [2] (setting [4]) was below 200 nM each time.
On to `C#CC(O)(CNC(=O)c1cc(OC)c2nn(C3CC3)cc2c1)c1cc2c(c(-c3cc(Cl)c(F)cc3F)n1)OC[C@]2(C)C(N)=O` (some centres unmarked) [Example 473], for which the EC50 in assay [1] was below 200 nM; in assay [2] (setting [4]), above 200 nM.
Turning to `COc1cc(C(=O)NC[C@](O)(c2cc3c(c(-n4ncc5cc(F)ccc54)n2)OC[C@]3(C)C(N)=O)C2CC2)cc2cn(C3CC3)nc12` [Example 821], the EC50 in assay [1] and in assay [2] (setting [3]) was below 200 nM each time.
Consider `COc1cc(C(=O)NC[C@](O)(c2cc3c(c(-c4ccc5c(c4Cl)OC(F)(F)O5)n2)OC[C@]3(C)C(N)=O)C2CC2)cc2cc(Cl)cnc12` [Example 105], for which the EC50 in assay [1] and in assay [2] (setting [4]) was below 200 nM each time.
As to `C[C@]1(C(N)=O)COc2c1cc([C@@](O)(CNC(=O)c1cc(Cl)c3nn(C4CC4)cc3c1)C1(F)CC1)nc2-c1cc(C(F)(F)F)ncc1F` [Example 671], the EC50 in assay [1] and in assay [2] (setting [3]) was below 200 nM each time.
Regarding `COc1nccc(-c2nc([C@@](O)(CNC(=O)c3cc(OC)n4nc(C5CC5)cc4c3)C3CC3)cc3c2OC[C@]3(C)C(N)=O)c1Cl` [Example 582], the EC50 in assay [1] and in assay [2] (setting [4]) was below 200 nM in each case.
Regarding `COc1cc(C(=O)NCC(O)(CC2CC2)c2cc3c(c(-c4cc(Cl)c(F)cc4F)n2)OC[C@]3(C)C(N)=O)cc2cn(C3CC3)nc12` (some centres unmarked) [Example 239], the EC50 in assay [1] was below 200 nM; in assay [2] (setting [4]), above 200 nM.
In the case of `COc1cc(C(=O)NC[C@](O)(c2cc3c(c(-c4ccnc(C(F)(F)F)c4Cl)n2)OC[C@]3(C)C(N)=O)C2CC2)cc2oc(C3CC3)nc12` [Example 762], the EC50 in assay [1] and in assay [2] (setting [3]) was below 200 nM throughout.
Consider `COc1cc(C(=O)NC[C@](O)(c2cc3c(c(-c4cc(F)c(F)cc4F)n2)OC[C@]3(C)C(N)=O)C2CC(F)(F)C2)cc2oc(C3CC3)nc12` [Example 124], for which the EC50 in assay [1] and in assay [2] (setting [4]) was below 200 nM throughout.
In the case of `COc1cc(C(=O)NC[C@](O)(c2cc3c(c(-n4ccc5c(F)cccc54)n2)OC[C@]3(C)C(N)=O)C2(F)CC2)cc2cn(C3(F)CC3)nc12` [Example 689], the EC50 in assay [1] and in assay [2] (setting [3]) was below 200 nM each time.
